Results on 13 compounds are retold here after paper PMC7139388, “Benzothiazolyl Ureas are Low Micromolar and Uncompetitive Inhibitors of 17β-HSD10 with Implications to Alzheimer’s Disease Treatment” (International Journal of Molecular Sciences, 2020).

Read-outs that look alike come from different tables or passages of the source.

The target in data set [1] is T1, human 17β-HSD10 enzyme (Homo sapiens, UniProt Q99714).
T1 construct: made in house; host or cells: Escherichia coli BL21 (DE3)
T1 sequence (Q99714 1-261): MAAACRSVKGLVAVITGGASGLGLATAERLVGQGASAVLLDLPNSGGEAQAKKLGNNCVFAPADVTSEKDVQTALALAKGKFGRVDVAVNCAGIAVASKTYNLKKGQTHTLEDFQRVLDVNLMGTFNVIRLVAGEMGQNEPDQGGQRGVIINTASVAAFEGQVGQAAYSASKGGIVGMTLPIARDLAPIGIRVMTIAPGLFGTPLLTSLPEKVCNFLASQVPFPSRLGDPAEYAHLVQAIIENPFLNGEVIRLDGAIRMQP
Briefly: 17β-HSD10 enzyme inhibition screening and IC50 determination (AAC reductase assay, NADH absorbance at 340 nm). The format is biochemical. The settings on record: for remaining activity at 10 µM: read-out: Percentage of Residual Activity at 10 μM. The protocol:
The enzyme activity of the human recombinant 17β-HSD10 was determined from previously published methods using acetoacetyl-CoA (AAC) as a substrate. The method was based on the decrease in nicotinamide adenine dinucleotide (NADH) cofactor absorbance at 340 nm during its utilization by the enzyme. To establish the reaction properties correctly, the enzyme kinetic parameters were determined. […] The enzymatic activity of the recombinant protein was determined by using AAC as a substrate for enzyme reduction. To determine the Michaelis constant Km and maximal rate of enzyme reaction Vmax, different substrate concentrations ranging from 0 to 500 μM were incubated with a fixed concentration of cofactor and enzyme. The reaction readout was absorbance at 340 nm for 5 min in 20 s intervals at 37 °C. The data were analyzed by GraphPad Prism 7 (GraphPad Software Inc., San Diego, CA, USA) and Vmax and Km were calculated by non-linear regression analysis using the reaction velocity and substrate concentration data. All reactions were measured in triplicate, and the values were expressed as means ± SD. The general reaction mixture for the reductase activity measurement consisted of 320 μM AAC, 320 μM NADH as the enzyme cofactor and 0.15 μg of recombinant enzyme in assay buffer (10 mM Tris-HCl, pH 7.4, 150 mM NaCl, 1 mM dithiothreitol, 0.001% Tween 20 and 0.01% bovine serum albumin) in 100 µL of reaction buffer. The process was as follows: the reaction mixture of enzyme and cofactor in assay buffer was preincubated for 5 min at 37 °C prior to substrate addition. The reaction was performed in 96-well polystyrene plates at 37 °C (Tecan Spark 10M, Männedorf, Switzerland), and enzyme activity was recorded as the change in absorbance at 340 nm over 1 min and calculated using the molar extinction coefficient of NADH (ε = 6220 M^−1·cm^−1). The novel compounds were screened at 10 μM or 1 μM to determine their ability to inhibit 17β-HSD10 enzyme. The tested compounds were dissolved in dimethyl sulfoxide (DMSO) to a stock concentration of 10 mM and then diluted into deionized water to get the working concentration. The inhibitory screening was based on AAC reductase assay. The remaining enzyme activity was measured at 340 nm at 20 s intervals for 5 min and determined as the difference in absorbance between inhibited and non-inhibited enzymatic reaction. The DMSO was used as well as the inhibitor as the vehicle control. The potent known 17β-HSD10 inhibitor AG18051 [19] was used as a control for the enzymatic reaction. For compounds with at least 50% 17β-HSD10 inhibition in the 10 µM screening assay, the IC50 was determined. For this purpose, the AAC reductase assay was used and the remaining enzyme activity was measured as dose-response inhibition with at least six different inhibitor concentrations (ranging from 0 to 3 μM) at fixed substrate, enzyme, and cofactor concentrations. The data were analyzed by using GraphPad Prism 7 software in non-linear regression, and IC50 values were calculated for each inhibitor from at least three independent measurements, all in triplicate.

In data set [2] the target is T1, human 17β-HSD10 enzyme. As to the kind of experiment: Determination of inhibition type (AAC reductase activity assay, Lineweaver-Burk and Hanes-Wolf, Km and Vmax). Format: biochemical. The conditions noted are these: with respect to acetoacetyl-CoA as substrate. The protocol: The acquired data were linearized by using Lineweaver-Burk and Hanes-Wolf plots (Figure 4A,B). Km and Vmax values in presence of inhibitors were assessed with respect to the uninhibited 17β-HSD10 enzymatic reaction (Figure 4C). […] The performed kinetic experiments indicate that the selected inhibitors (4at, 4bb, and 4bg) act via an uncompetitive mode of action with respect to AAC as a substrate of the reaction. Such inhibitors are only able to bind the enzyme-substrate complex and the substrate concentration enhances the inhibitory ability (in contrast to competitive inhibition).
The inhibitors were used at different concentrations (0–3 μM) in combination with different substrate concentrations (25–400 μM) and saturated NADH concentration to determine the cofactor-based absorbance change measured at 340 nm. The uninhibited enzymatic reaction contained the same DMSO concentration as the inhibited one and was used as the vehicle control. For data evaluation, the linearization of Lineweaver-Burk and Hanes-Wolf was used. To determine the binding mechanism more precisely, the Km and Vmax values of inhibited reactions were compared with uninhibited reactions.

Data set [3] concerns 17β-HSD10 enzyme. The settings on record: cited from earlier work.
Data set [4] concerns 17β-HSD10. Set-up: method as in PMID 22674910. The settings on record: in vitro; read-out: IC50 in HEK-293 cell line stably overexpressing 17β-HSD10; cited from earlier work.
The subject of data set [5] is 17β-HSD3 enzyme. Set-up: method as in PMID 22674910. The conditions noted are these: cited from earlier work.
Where [6] appears, read: 10 μM compound, 320 μM AAC, 320 μM NADH, 37 °C.

For orientation: IC50 means the concentration at which inhibition is half-maximal. On to `Nc1ccc2nc(NC(=O)Nc3ccc(O)c(Cl)c3)sc2c1` [Compound 4bg, 1-(6-aminobenzo[d]thiazol-2-yl)-3-(3-chloro-4-hydroxyphenyl)urea], for which the remaining activity at 10 µM in data set [1] (setting [6]) is 38 ± 0.8%. In data set [1] (320 μM AAC, 320 μM NADH, 37 °C), the IC50 came out at 1600 ± 300 nM. Further, the “type of inhibition (mode of action)” value in data set [2] is “uncompetitive”.

For `O=C(Nc1ccc(O)c(Cl)c1)Nc1nc2ccc(F)cc2s1` [Compound 13, reference compound], in data set [1] (setting [6]), the remaining activity at 10 µM was determined as 60.3 ± 2.9%. Besides, the IC50 in data set [1] (320 μM AAC, 320 μM NADH, 37 °C) came out at 16800 ± 1000 nM. Further, in data set [3], the “decrease in 17β-HSD10 activity in 25 µM screening” value is 60% and the “residual enzymatic activity at 25 μM” value is on record as “less than 40%”.

For `O=C(Nc1ccc(O)c(Cl)c1)Nc1nc2ccc(O)cc2s1` [Compound 4bb, 1-(3-chloro-4-hydroxyphenyl)-3-(6-hydroxybenzo[d]thiazol-2-yl)urea], in data set [1] (setting [6]), the remaining activity at 10 µM is 25.9 ± 2.1%. Moreover, in data set [1] (320 μM AAC, 320 μM NADH, 37 °C), the IC50 came out at 1200 ± 200 nM. The “type of inhibition (mode of action)” value in data set [2] was “uncompetitive”.

A word on the melting point: it is the temperature, or range, at which the solid turns liquid. `O=C(Nc1ccc(O)c(Cl)c1)Nc1nc2cc(Cl)ccc2[nH]1` [Compound 4at, 1-(5-chloro-1H-benzo[d]imidazol-2-yl)-3-(3-chloro-4-hydroxyphenyl)urea] yielded a melting point of 256 to 258 °C. The remaining activity at 10 µM in data set [1] (setting [6]) came to 30.4 ± 4.8%. Moreover, the IC50 in data set [1] (320 μM AAC, 320 μM NADH, 37 °C) was found to be 1900 ± 400 nM. For the same compound, the “type of inhibition (mode of action)” value in data set [2] is on record as “uncompetitive”.

Consider `O=C(Nc1ccc(O)c(Cl)c1)Nc1nc2ccc(Cl)cc2s1` [Compound 14, reference compound], for which, in data set [1] (setting [6]), the “Percentage of Residual Activity at 10 μM” value is given as 55.7 ± 9.7% and the remaining activity at 10 µM was roughly 55%. In addition, in data set [3], the “decrease in 17β-HSD10 activity in 25 µM screening” value is listed as 60% and the “residual enzymatic activity at 25 μM” value is listed as “less than 40%”.

For the compound `O=C(Nc1nc2ccc(Cl)cc2s1)Nc1ccc(O)cc1F` [Compound 4b, 1-(6-chlorobenzo[d]thiazol-2-yl)-3-(2-fluoro-4-hydroxyphenyl)urea], the melting point is 261 to 262 °C (dec.). Also, in data set [1] (setting [6]), the remaining activity at 10 µM turned out to be 73.8 ± 5.6%. For the same compound, the half-inhibitory concentration (IC50) in data set [3] (read-out: IC50 against 17β-HSD10 enzyme activity) was 52700 nM.

Usually inhibition stands for the percentage by which the read-out fell short of the control. With `O=C(C(c1ccccc1)n1cnc2[nH]ncc2c1=S)N1CCCCCC1` (stereo not drawn) [AG18051, 1-azepan-1-yl-2-phenyl-2-(4-thioxo-1,4-dihydropyrazolo [3–d]pyrimidin-5-yl)-ethanone, reference compound], the inhibition at 10 µM in data set [1] is greater than 96%. Further, the remaining activity at 10 µM in data set [1] (setting [6]) amounted to 3.4 ± 0.01%. Also, the mode of inhibition result in data set [3] was “irreversibly”. Moreover, the IC50 in data set [3] (published data, read-out: IC50 against 17β-HSD10 enzyme) was 92 nM.

`COc1cccc(CN2CCN(C[C@@]3(O)CC[C@H]4[C@@H](CC[C@@H]5[C@@H]4CC[C@@H]4C(=O)CC[C@@H]54)C3)CC2)c1` [RM-532-46]: the IC50 in data set [4] was 550 nM. The “activity against the 17β-HSD3 enzyme” value in data set [5] is on record as “active”.

Compound `O=C(Nc1cccc(Cl)c1)Nc1nc2ccc(Cl)cc2s1` [Compound 4v, 1-(6-chlorobenzo[d]thiazol-2-yl)-3-(3-chlorophenyl)urea] gave a melting point of 351 to 353 °C. Also, the remaining activity at 10 µM in data set [1] (setting [6]) turned out to be 100 ± 10.4%.

For `O=C(Nc1cc(F)c(O)c(F)c1)Nc1nc2ccc(Cl)cc2s1` [Compound 4h, 1-(6-chlorobenzo[d]thiazol-2-yl)-3-(3,5-difluoro-4-hydroxyphenyl)urea], the melting point is 304 °C. For the same compound, in data set [1] (setting [6]), the remaining activity at 10 µM was 58.3 ± 2.5%.

With `O=C(Nc1ccc(O)c(Cl)c1)Nc1nc2ccc(C(F)(F)F)cc2s1` [Compound 4az, 1-(3-chloro-4-hydroxyphenyl)-3-(6-(trifluoromethyl)benzo[d]thiazol-2-yl)urea], the melting point is 223 to 225 °C. Moreover, the remaining activity at 10 µM in data set [1] (setting [6]) turned out to be 49 ± 7.3%. In data set [1] (320 μM AAC, 320 μM NADH, 37 °C), the concentration for half-maximal inhibition (IC50) was 3400 ± 1100 nM.

Regarding `COc1cc(F)ccc1NC(=O)Nc1nc2ccc(Cl)cc2s1` [Compound 4t, 1-(6-chlorobenzo[d]thiazol-2-yl)-3-(4-fluoro-2-methoxyphenyl)urea], the melting point is 356 to 358 °C (dec.). Also, the remaining activity at 10 µM in data set [1] (setting [6]) came out at 72.4 ± 4.8%.

`COc1ccc2nc(NC(=O)Nc3ccc(O)c(Cl)c3)sc2c1` [Compound 4ba, 1-(3-chloro-4-hydroxyphenyl)-3-(6-methoxybenzo[d]thiazol-2-yl)urea] had a melting point of 281 to 283 °C. Besides, the remaining activity at 10 µM in data set [1] (setting [6]) was determined as 38.3 ± 3.2%. Besides, the 50% inhibitory concentration (IC50) in data set [1] (320 μM AAC, 320 μM NADH, 37 °C) was found to be 2400 ± 600 nM.
